From patent US6737383B1, “Herbicidal oxadiazolidines” (priority 1999, dated 2004)

Key:
[1] = tested on: cocklebur; assay: Test B pre/postemergence cocklebur; format: in vivo, Xanthium strumarium
Method in brief: (§1)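 Test chemicals in a non-phytotoxic solvent mixture with surfactant were sprayed preemergence onto planted seeds and postemergence onto plants 2 to 18 cm tall (1- to 4-leaf stage). After twelve to sixteen days in a greenhouse, injury was visually rated against untreated controls from 0 (no effect) to 10 (complete control).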

[2] = tested on: corn; assay: Test B pre/postemergence corn; format: in vivo, Zea mays
Method in brief: as §1

[3] = tested on: crabgrass; assay: Test B pre/postemergence crabgrass; format: in vivo, Digitaria sanguinalis
Method in brief: as §1

[4] = tested on: giant foxtail; assay: Test B pre/postemergence giant foxtail; format: in vivo, Setaria faberii
Method in brief: as §1

[5] = tested on: morningglory; assay: Test B pre/postemergence morningglory; format: in vivo, Ipomoea hederacea
Method in brief: as §1

[6] = tested on: pigweed; assay: Test B pre/postemergence pigweed; format: in vivo, Amaranthus retroflexus
Method in brief: as §1

[7] = tested on: rape; assay: Test B pre/postemergence rape; format: in vivo, Brassica napus
Method in brief: as §1

[8] = tested on: soybean; assay: Test B pre/postemergence soybean; format: in vivo, Glycine max
Method in brief: as §1

[9] = tested on: sugar beet; assay: Test B pre/postemergence sugar beet; format: in vivo, Beta vulgaris
Method in brief: as §1

[10] = tested on: velvetleaf; assay: Test B pre/postemergence velvetleaf; format: in vivo, Abutilon theophrasti
Method in brief: as §1

[11] = tested on: wheat; assay: Test B pre/postemergence wheat; format: in vivo, Triticum aestivum
Method in brief: as §1

[12] = tested on: wild oat; assay: Test B pre/postemergence wild oat; format: in vivo, Avena fatua
Method in brief: as §1

[13] = tested on: purple nutsedge; assay: Test B pre/postemergence purple nutsedge; format: in vivo, Cyperus rotundus
Method in brief: as §1

[14] = tested on: rice; assay: Test B flood test rice; format: in vivo, Oryza sativa
Method in brief: (§2)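 Each value is a visual injury score relative to controls, with 10 meaning complete control and 0 no effect. Evaluation took place twelve to sixteen days after the 2-leaf-stage plants were treated and kept in the greenhouse.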

[15] = tested on: duck salad; assay: Test B flood test duck salad; format: in vivo, Heteranthera limosa
Method in brief: as §2

[16] = tested on: bamyardgrass; assay: Test B flood test barnyardgrass; format: in vivo, Echinochloa crus-galli
Method in brief: as §2

[17] = Postemergence, Rate 62 g/ha, scale 0 to 10, 0 is no effect, 10 is complete control
[18] = Postemergence, Rate 250 g/ha, scale 0 to 10, 0 no effect, 10 complete control
[19] = Preemergence, Rate 62 g/ha, scale 0 to 10, 0 is no effect, 10 is complete control
[20] = Preemergence, Rate 125 g/ha, scale 0 to 10 (0 no effect, 10 complete control)
[21] = Preemergence, Rate 250 g/ha, scale of 0 to 10 where 0 is no effect and 10 is complete control
[22] = Preemergence, Rate 500 g/ha, scale 0 (no effect) to 10 (complete control)
[23] = Rate 125 g/ha, Postemergence, scale 0 to 10, 0 no effect, 10 complete control
[24] = Rate 500 g/ha, Postemergence, 0 to 10 scale (0 no effect, 10 complete control)
[25] = Rate 125 g/ha, Postemergence section (flood test species), scale 0 to 10, 0 no effect, 10 complete control
[26] = Rate 500 g/ha, Postemergence section of Table B, 0 to 10 scale (0 no effect, 10 complete control)
[27] = flood test, listed under Postemergence, Rate 250 g/ha, scale 0 to 10, 0 no effect, 10 complete control

CC(C)Oc1cc(-n2c(=O)on(C(=O)N(c3ccc(F)cc3)C(C)C)c2=O)c(Cl)cc1Cl [Compound 43]
Cocklebur plant response rating [1, 17]: 0 | Cocklebur plant response rating [1, 18]: 0 | Plant response rating, Cocklebur [1, 19]: 0 | Plant response rating, Cocklebur [1, 20]: 0 | Plant response rating, Cocklebur [1, 21]: 0 | Cocklebur plant response rating [1, 22]: 0 | Cocklebur plant response rating [1, 23]: 0 | Cocklebur plant response rating [1, 24]: 1 | Corn plant response rating [2, 17]: 0 | Corn plant response rating [2, 18]: 0 | Plant response rating, Corn [2, 19]: 0 | Plant response rating, Corn [2, 20]: 0 | Plant response rating, Corn [2, 21]: 0 | Corn plant response rating [2, 22]: 0 | Corn plant response rating [2, 23]: 0 | Corn plant response rating [2, 24]: 0 | Crabgrass plant response rating [3, 17]: 1 | Crabgrass plant response rating [3, 18]: 2 | Plant response rating, Crabgrass [3, 19]: 0 | Plant response rating, Crabgrass [3, 20]: 0 | Plant response rating, Crabgrass [3, 21]: 0 | Crabgrass plant response rating [3, 22]: 0 | Crabgrass plant response rating [3, 23]: 2 | Crabgrass plant response rating [3, 24]: 2 | Giant foxtail plant response rating [4, 17]: 0 | Giant foxtail plant response rating [4, 18]: 0 | Plant response rating, Giant foxtail [4, 19]: 0 | Plant response rating, Giant foxtail [4, 20]: 0 | Plant response rating, Giant foxtail [4, 21]: 0 | Giant foxtail plant response rating [4, 22]: 0 | Giant foxtail plant response rating [4, 23]: 0 | Giant foxtail plant response rating [4, 24]: 0 | Morningglory plant response rating [5, 17]: 2 | Morningglory plant response rating [5, 18]: 3 | Plant response rating, Morningglory [5, 19]: 0 | Plant response rating, Morningglory [5, 20]: 0 | Plant response rating, Morningglory [5, 21]: 0 | Morningglory plant response rating [5, 22]: 0 | Morningglory plant response rating [5, 23]: 3 | Morningglory plant response rating [5, 24]: 4 | Redroot pigweed plant response rating [6, 17]: 1 | Plant response rating, Redroot pigweed [6, 19]: 0 | Plant response rating, Redroot pigweed [6, 20]: 0 | Plant response rating, Redroot pigweed [6, 21]: 0 | Redroot pigweed plant response rating [6, 22]: 4 | Redroot pigweed plant response rating [6, 23]: 2 | Redroot pigweed plant response rating [6, 24]: 6 | Rape plant response rating [7, 17]: 0 | Rape plant response rating [7, 18]: 0 | Plant response rating, Rape [7, 19]: 0 | Plant response rating, Rape [7, 20]: 0 | Plant response rating, Rape [7, 21]: 0 | Rape plant response rating [7, 22]: 0 | Rape plant response rating [7, 23]: 0 | Soybean plant response rating [8, 17]: 2 | Soybean plant response rating [8, 18]: 3 | Plant response rating, Soybean [8, 19]: 0 | Plant response rating, Soybean [8, 20]: 0 | Plant response rating, Soybean [8, 21]: 0 | Soybean plant response rating [8, 22]: 0 | Soybean plant response rating [8, 23]: 3 | Sugarbeets plant response rating [9, 17]: 0 | Sugarbeets plant response rating [9, 18]: 1 | Plant response rating, Sugarbeets [9, 19]: 0 | Plant response rating, Sugarbeets [9, 20]: 0 | Plant response rating, Sugarbeets [9, 21]: 0 | Sugarbeets plant response rating [9, 22]: 0 | Sugarbeets plant response rating [9, 23]: 1 | Velvetleaf plant response rating [10, 17]: 0 | Velvetleaf plant response rating [10, 18]: 0 | Plant response rating, Velvetleaf [10, 19]: 0 | Plant response rating, Velvetleaf [10, 20]: 0 | Plant response rating, Velvetleaf [10, 21]: 0 | Velvetleaf plant response rating [10, 22]: 0 | Velvetleaf plant response rating [10, 23]: 0 | Wheat plant response rating [11, 17]: 0 | Wheat plant response rating [11, 18]: 0 | Plant response rating, Wheat [11, 19]: 0 | Plant response rating, Wheat [11, 20]: 0 | Plant response rating, Wheat [11, 21]: 0 | Wheat plant response rating [11, 22]: 0 | Wheat plant response rating [11, 23]: 0 | Wild oats plant response rating [12, 17]: 0 | Wild oats plant response rating [12, 18]: 0 | Plant response rating, Wild oats [12, 20]: 0 | Plant response rating, Wild oats [12, 21]: 0 | Wild oats plant response rating [12, 22]: 0 | Wild oats plant response rating [12, 23]: 0 | Nutsedge plant response rating [13, 17]: 0 | Nutsedge plant response rating [13, 18]: 0 | Plant response rating, Nutsedge [13, 19]: 0 | Plant response rating, Nutsedge [13, 20]: 0 | Plant response rating, Nutsedge [13, 21]: 0 | Nutsedge plant response rating [13, 22]: 0 | Nutsedge plant response rating [13, 23]: 0 | Nutsedge plant response rating [13, 24]: 0 | Rice plant response rating [14, 17]: 0 | Rice plant response rating [14, 25]: 0 | Rice plant response rating [14, 26]: 0 | Rice plant response rating [14, 27]: 0 | Ducksalad plant response rating [15, 17]: 0 | Ducksalad plant response rating [15, 25]: 0 | Ducksalad plant response rating [15, 26]: 0 | Ducksalad plant response rating [15, 27]: 0 | Barnyardgrass plant response rating [16, 17]: 0 | Barnyardgrass plant response rating [16, 25]: 0 | Barnyardgrass plant response rating [16, 26]: 0 | Barnyardgrass plant response rating [16, 27]: 0
